From patent US8802597B2, “Herbicidal pyrimidines” (E I du Pont de Nemours and Company, priority 2003, dated 2014)
Like-named read-outs stand apart in the source and are kept apart here.

What was measured:
Assay in all cases: Test C pre/postemergence
Assay type in all cases: in vivo
[1] = system: woolly cupgrass (Eriochloa villosa); conditions: Eriochloa villosa, read-out: Plant response rating, Cupgrass, Woolly; for pest or weed control at 250 g/ha: 250 g ai/ha; for pest or weed control at 500 g/ha: 500 g ai/ha
Outline: (§1)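 Injury scored visually 12–14 days after application on 0–100 scale (100 = complete control), relative to controls. Compounds, formulated with surfactant in non-phytotoxic solvent, applied to soil at planting (pre) or to 1- to 4-leaf plants 2–18 cm tall (post) in greenhouse.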

[2] = system: Surinam grass (Brachiaria decumbens); conditions: Urochloa decumbens; for pest or weed control at 125 g/ha: 125 g ai/ha; for pest or weed control at 500 g/ha: 500 g ai/ha; for pest or weed control at 62 g/ha: 62 g ai/ha; for pest or weed control at 250 g/ha: 250 g ai/ha
Outline: as §1

[3] = system: yellow nutsedge (Cyperus esculentus); conditions: Cyperus; for pest or weed control at 62 g/ha: 62 g ai/ha; for pest or weed control at 125 g/ha: 125 g ai/ha; for pest or weed control at 250 g/ha: 250 g ai/ha; for pest or weed control at 500 g/ha: 500 g ai/ha
Outline: as §1

[4] = system: morningglory (Ipomoea coccinea); conditions: Ipomoea; for pest or weed control at 62 g/ha: 62 g ai/ha; for pest or weed control at 125 g/ha: 125 g ai/ha; for pest or weed control at 250 g/ha: 250 g ai/ha; for pest or weed control at 500 g/ha: 500 g ai/ha
Outline: as §1

[5] = system: lambsquarters (Chenopodium album); conditions: Chenopodium album; for pest or weed control at 62 g/ha: 62 g ai/ha; for pest or weed control at 125 g/ha: 125 g ai/ha; for pest or weed control at 250 g/ha: 250 g ai/ha; for pest or weed control at 500 g/ha: 500 g ai/ha
Outline: as §1

[6] = system: soybean (Glycine max); conditions: Glycine max; for plant injury at 62 g/ha: 62 g ai/ha; for plant injury at 125 g/ha: 125 g ai/ha; for plant injury at 250 g/ha: 250 g ai/ha; for plant injury at 500 g/ha: 500 g ai/ha
Outline: as §1

[7] = post-emergence, Postemergence, scale 0 to 100
[8] = pre-emergence, Preemergence, scale 0 to 100
[9] = post-emergence, Postemergence, scale 0 to 100 (0 no effect, 100 complete control), read-out: Surinam Grass plant response rating
[10] = post-emergence, Postemergence, scale 0 to 100, read-out: Plant response rating, Surinam Grass
[11] = pre-emergence, Preemergence, scale 0 to 100, read-out: Plant response rating, Surinam Grass
[12] = post-emergence, Postemergence, scale 0 to 100 (0 no effect, 100 complete control), read-out: Nutsedge, Yellow plant response rating
[13] = post-emergence, Postemergence, scale 0 to 100, read-out: Plant response rating, Nutsedge, Yellow
[14] = pre-emergence, Preemergence, scale 0 to 100, read-out: Plant response rating, Nutsedge, Yellow
[15] = post-emergence, Postemergence, scale 0 to 100 (0 no effect, 100 complete control), read-out: Morningglory plant response rating
[16] = post-emergence, Postemergence, scale 0 to 100, read-out: Plant response rating, Morningglory
[17] = pre-emergence, Preemergence, scale 0 to 100, read-out: Plant response rating, Morningglory
[18] = post-emergence, Postemergence, scale 0 to 100 (0 no effect, 100 complete control), read-out: Lambsquarters plant response rating
[19] = post-emergence, Postemergence, scale 0 to 100, read-out: Plant response rating, Lambsquarters
[20] = pre-emergence, Preemergence, scale 0 to 100, read-out: Plant response rating, Lambsquarters
[21] = post-emergence, Postemergence, scale 0 to 100 (0 no effect, 100 complete control), read-out: Soybean plant response rating
[22] = post-emergence, Postemergence, scale 0 to 100, read-out: Plant response rating, Soybean
[23] = pre-emergence, Preemergence, scale 0 to 100, read-out: Plant response rating, Soybean

CCOC(=O)c1nc(C2CC2)nc(N)c1Cl [Compound 4, ethyl 6-amino-5-chloro-2-cyclopropyl-4-pyrimidinecarboxylate]
pest or weed control at 250 g/ha [1, 7]: 85%
pest or weed control at 500 g/ha [1, 7]: 95%
pest or weed control at 62 g/ha ([1]; pre-emergence, Preemergence, 62 g ai/ha, scale 0 to 100, 0 no effect, 100 complete control): 0%
pest or weed control at 125 g/ha ([1]; pre-emergence, Preemergence, 125 g ai/ha, scale 0 to 100): 80%
pest or weed control at 250 g/ha [1, 8]: 95%
pest or weed control at 500 g/ha [1, 8]: 95%
pest or weed control at 125 g/ha [2, 9]: 75%
pest or weed control at 500 g/ha [2, 10]: 95%
pest or weed control at 62 g/ha [2, 9]: 60%
pest or weed control at 250 g/ha [2, 10]: 75%
pest or weed control at 62 g/ha ([2]; pre-emergence, Preemergence, scale 0 to 100, 0 no effect, 100 complete control, read-out: Plant response rating, Surinam Grass): 0%
pest or weed control at 125 g/ha [2, 11]: 65%
pest or weed control at 250 g/ha [2, 11]: 85%
pest or weed control at 500 g/ha [2, 11]: 100%
pest or weed control at 62 g/ha [3, 12]: 0%
pest or weed control at 125 g/ha [3, 12]: 0%
pest or weed control at 250 g/ha [3, 13]: 0%
pest or weed control at 500 g/ha [3, 13]: 0%
pest or weed control at 62 g/ha ([3]; pre-emergence, Preemergence, scale 0 to 100, 0 no effect, 100 complete control, read-out: Plant response rating, Nutsedge, Yellow): 0%
pest or weed control at 125 g/ha [3, 14]: 0%
pest or weed control at 250 g/ha [3, 14]: 15%
pest or weed control at 500 g/ha [3, 14]: 80%
pest or weed control at 62 g/ha [4, 15]: 15%
pest or weed control at 125 g/ha [4, 15]: 100%
pest or weed control at 250 g/ha [4, 16]: 100%
pest or weed control at 500 g/ha [4, 16]: 100%
pest or weed control at 62 g/ha ([4]; pre-emergence, Preemergence, scale 0 to 100, 0 no effect, 100 complete control, read-out: Plant response rating, Morningglory): 100%
pest or weed control at 125 g/ha [4, 17]: 100%
pest or weed control at 250 g/ha [4, 17]: 100%
pest or weed control at 500 g/ha [4, 17]: 100%
pest or weed control at 62 g/ha [5, 18]: 100%
pest or weed control at 125 g/ha [5, 18]: 100%
pest or weed control at 250 g/ha [5, 19]: 100%
pest or weed control at 500 g/ha [5, 19]: 100%
pest or weed control at 62 g/ha ([5]; pre-emergence, Preemergence, scale 0 to 100, 0 no effect, 100 complete control, read-out: Plant response rating, Lambsquarters): 95%
pest or weed control at 125 g/ha [5, 20]: 100%
pest or weed control at 250 g/ha [5, 20]: 100%
pest or weed control at 500 g/ha [5, 20]: 100%
plant injury at 62 g/ha [6, 21]: 100%
plant injury at 125 g/ha [6, 21]: 100%
plant injury at 250 g/ha [6, 22]: 100%
plant injury at 500 g/ha [6, 22]: 100%
plant injury at 62 g/ha ([6]; pre-emergence, Preemergence, scale 0 to 100, 0 no effect, 100 complete control, read-out: Plant response rating, Soybean): 95%
plant injury at 125 g/ha [6, 23]: 100%
plant injury at 250 g/ha [6, 23]: 100%
plant injury at 500 g/ha [6, 23]: 100%
